Test results as given in US6723702B2, “Use of relaxin treat diseases related to vasoconstriction” (RAS Medical, Inc., priority 2000, dated 2004).
Where two headings read alike, the source gives them in different places.

How the values were obtained:
Type in all cases: in vivo, rat
[1] = test system: Alveolar macrophages or spleen cells; experiment: VEGF expression by RT-PCR in non-wound macrophages and immune cells; details: following relaxin treatment
Description: Resident macrophages and immune cells from other non-wound sources were also harvested from vehicle- and relaxin-treated rats, and assayed for VEGF expression by RT-PCR.

[2] = test system: hypoxia-exposed and room-air Sprague-Dawley rats; details: for mean RVP compared to the veh-hyp group: hypoxia 10 days (FIG. 7)
Method: Outbred 6-week-old Sprague-Dawley rats, 200-220 g body weight, were obtained from Hilltop Laboratories, Scottdale, Pa. Recombinant human relaxin (rhRlx) (5.0 mg/ml in 20 mM sodium acetate, pH5.0) and vehicle (20 mM acetate, pH5.0) were provided by Connetics Corporation (Palo Alto, Calif.). Miniosmotic pumps were purchased from Alza Corporation (Model 2002, Alza Corp., Palo Alto, Calif.).
Mini osmotic pumps were filled to deliver rhRlx at […], or vehicle alone. Osmotic pumps were inserted subcutaneously in rats under a combination of ketamine and xylazine anaesthesia. The area around the back of the neck was shaved, cleaned with alcohol, and a small incision made for pump insertion. Incision was closed with surgical staples. After the animals were fully conscious they were randomly assigned to either hypoxic exposure or room air. Rats were subjected to either air or hypoxia, as described below. There were three groups of rats subjected to air: vehicle-treated (veh-air), 0.05 mg/kg/day rhRlx (low rhRlx-air), and 0.24 mg/kg/day rhRlx (hi rhRlx-air). There were three groups subjected to hypoxia: vehicle (veh-hyp), 0.05 mg/kg/day rhRlx (low rhRlx-hyp), and 0.24 mg/kg/day rhRlx (hi rhRlx-hyp).
Rats were exposed to hypoxia (10% O2, 90% N2) at ambient pressure (Kerr et al., 1987) for 10 days, control groups were exposed to room air in the same room. Hypoxic animals were fed standard rat chow and water. Age-matched control groups were weight-matched by feeding the amount of food consumed by the rats in the hypoxic groups. At the end of the test period, mean right ventricular pressure (RVP) was measured in rats anaesthetized with an intraperitoneal injection of 50 mg/kg pentobarbital sodium. The portal vein was then cut for hematocrit measurement (Hct) and blood sampling, and the ratio of the right ventricle to left ventricle plus septum measured [RV/(LV+S)] (Kerr et al., 1987). To determine the effect of acute administration of rhRlx on pulmonary artery pressure, four 10-day hypoxic rats were anaesthetized, as previously described, and RVP monitored for 1 hr following administration of a bolus dose of 2 μg rhRlx in 0.2 ml total volume, followed by an infusion of 2 μg rhRlx in 0.2 ml, given over 10 min.
The pulmonary artery trunk, right and left extrapulmonary branches were removed en bloc, cleaned of surrounding tissue, and weighed. The left lung was and excised and the entire hilar artery dissected from parenchyma and weighed (Tozzi et al. (1994) Am. J. Respir. Crit. Care Med. 149:1316-1326). Segments were hydrolyzed, and total hydroxyproline and protein determined (Poiani et al. (1990) Circ. Res. 66:968-978). Approximately 3 cc of whole blood was centrifuged, serum aspirated, and sample frozen at −20° C. for determination of rRlx levels by ELISA assay.

[3] = test system: Female Sprague-Dawley rats; experiment: Kidney function in cyclosporine-treated rats; details: for GFR / Urine Flow: Normal = 1.0
Method: Relaxin (rhRlx) was administrated via subcutaneous pumps at dose of either 0.1 mg/kg/day or 0.5 mg/kg/day for 10 days (day 0-10). On day B2 (baseline), Day 4, and Day 9, all rats were put into metabolic cages. The 24-hour urine volume was measured to calculate urine flow rate using the following formula: […]
Blood and urine were collected for creatinine measurement to calculate the GFR using the following formula: […]

[4] = CsA and rhRlx at either 0.1 mg/kg or 0.5 mg/kg
[5] = Normal rats + 0.5 mg/kg, Day 10

## rhRLX: recombinant human relaxin, identical in amino acid sequence to the product of the human H2 gene; A chain of 24, B chain of 29 amino acids
[1]
  VEGF expression: did not show an upregulation
[2]; 1 mg-air
  Hydroxyproline Hilar: 38.0 ± 2.3 μg/vessel
  Hydroxyproline MPA: 76.4 ± 4.0 μg/vessel
  Protein Hilar: 0.78 ± 0.3 mg/vessel
  Protein MPA: 2.6 ± 0.2 mg/vessel
[2]; 1 mg-hyp
  Hydroxyproline Hilar: 41.0 ± 3.3 μg/vessel
  Hydroxyproline MPA: 95.2 ± 3.6 μg/vessel
  Protein Hilar: 0.90 ± 0.2 mg/vessel
  Protein MPA: 2.3 ± 0.2 mg/vessel
[2]; 5 mg-air
  Hydroxyproline Hilar: 33.5 ± 1.5 μg/vessel
  Hydroxyproline MPA: 75.2 ± 4.0 μg/vessel
  Protein Hilar: 1.1 ± 0.1 mg/vessel
  Protein MPA: 2.5 ± 0.3 mg/vessel
[2]; 5 mg-hyp
  Hydroxyproline Hilar: 37.0 ± 5.0*↑ μg/vessel
  Hydroxyproline MPA: 86.6 ± 6.0*↑ μg/vessel
  Protein Hilar: 0.75 ± 0.8 mg/vessel
  Protein MPA: 2.0 ± 0.4 mg/vessel
[2]; hi rhRlx-hyp
  RV/(LV+S) ratio compared to the veh-hyp group: significantly reduced
[2]; high dose
  mean RVP compared to the veh-hyp group: decreased
[2]; low dose
  mean RVP compared to the veh-hyp group: decreased
[2]; low rhRlx-hyp
  RV/(LV+S) ratio compared to the veh-hyp group: significantly reduced
[3]; CsA + 0.1 mg/kg, Day 5
  GFR: 0.99 ± 0.15
  Urine Flow: 1.21 ± 0.36
[3]; CsA + 0.1 mg/kg, Day 10
  GFR: 1.49 ± 0.18
  Urine Flow: 1.59 ± 0.41
[3]; CsA + 0.5 mg/kg, Day 5
  GFR: 1.231 ± 0.15
  Urine Flow: 1.27 ± 0.16
[3]; CsA + 0.5 mg/kg, Day 10
  GFR: 1.39 ± 0.13
  Urine Flow: 1.067 ± 0.11
[3]; [4]
  creatinine clearance compared to animals treated with CsA alone: significantly improved
  urine flow rate compared to animals treated with CsA alone: significantly improved
[3]; Normal rats + 0.5 mg/kg, Day 5
  GFR: 1.47 ± 0.08
  Urine Flow: 1.68 ± 0.02
[3]; [5]
  GFR: 1.50 ± 0.09
  Urine Flow: 1.42 ± 0.01
[3]; normal rats, 0.5 mg/kg, day 5
  creatinine clearance compared to the baseline: 147%
  urine flow rate compared to the baseline: 168%
